The source of these data is US8962637B2, “Bicyclic compounds and their uses as dual c-SRC/JAK inhibitors” (Debiopharm S.A., priority 2010, dated 2015).

The target in one experiment is c-Src (Homo sapiens (Human), UniProt P12931). The experiment in a line: TR-FRET c-Src kinase assay. The note with it: ATP 50 μM; for inhibition at 0.1 µM: read-out: c-SRC % inhibition at 100 nM, 100 nM; for inhibition at 1 µM: read-out: c-SRC % inhibition at 1 μM. It counts as biochemical. How it is done:
(§1) Compounds were screened in the TR-FRET assay for JAK2 and c-Src kinase inhibition. Ultra light poly GT (Perkin Elmer) was used as the substrate for JAK2 and c-Src with the ATP concentration of 10 μM and 50 μM, respectively. […] The dose-response curve fitting was done using GraphPad Prism software.

The subject of another experiment is Mda-Mb-231 cells. The experiment in a line: Cell viability assay (XTT assay), Mda-Mb-231. The class given is cell-based. The note with it: Homo sapiens, 72 hrs. The protocol:
Mda-Mb-231 or A549 cells were seeded onto a 96-well micro plate. Next day compounds were added to cells and incubated for 72 hrs. Compound treatment was done in triplicates. After 72 hrs cell culture media was aspirated from the wells and XTT working solution was added and plates were incubated for 2-5 hrs. The absorbance of the samples was measured with a spectrophotometer at a wavelength of 465 nm. EC50 values were calculated using Graphpad Prism. Tumor cell lines used in the examples of the present invention were procured from ATCC. Description of the cell lines is included in the following table: […]

The target of a further experiment is JAK2 (Homo sapiens (Human), UniProt O60674). Nature of the experiment: TR-FRET JAK2 kinase assay. The class given is biochemical. The note with it: ATP 10 μM; for inhibition at 0.1 µM: read-out: JAK2 % inhibition at 100 nM, 100 nM; for inhibition at 1 µM: read-out: JAK2 % inhibition at 1 μM. The protocol: as §1
Chain of JAK2 (O60674 whole entry): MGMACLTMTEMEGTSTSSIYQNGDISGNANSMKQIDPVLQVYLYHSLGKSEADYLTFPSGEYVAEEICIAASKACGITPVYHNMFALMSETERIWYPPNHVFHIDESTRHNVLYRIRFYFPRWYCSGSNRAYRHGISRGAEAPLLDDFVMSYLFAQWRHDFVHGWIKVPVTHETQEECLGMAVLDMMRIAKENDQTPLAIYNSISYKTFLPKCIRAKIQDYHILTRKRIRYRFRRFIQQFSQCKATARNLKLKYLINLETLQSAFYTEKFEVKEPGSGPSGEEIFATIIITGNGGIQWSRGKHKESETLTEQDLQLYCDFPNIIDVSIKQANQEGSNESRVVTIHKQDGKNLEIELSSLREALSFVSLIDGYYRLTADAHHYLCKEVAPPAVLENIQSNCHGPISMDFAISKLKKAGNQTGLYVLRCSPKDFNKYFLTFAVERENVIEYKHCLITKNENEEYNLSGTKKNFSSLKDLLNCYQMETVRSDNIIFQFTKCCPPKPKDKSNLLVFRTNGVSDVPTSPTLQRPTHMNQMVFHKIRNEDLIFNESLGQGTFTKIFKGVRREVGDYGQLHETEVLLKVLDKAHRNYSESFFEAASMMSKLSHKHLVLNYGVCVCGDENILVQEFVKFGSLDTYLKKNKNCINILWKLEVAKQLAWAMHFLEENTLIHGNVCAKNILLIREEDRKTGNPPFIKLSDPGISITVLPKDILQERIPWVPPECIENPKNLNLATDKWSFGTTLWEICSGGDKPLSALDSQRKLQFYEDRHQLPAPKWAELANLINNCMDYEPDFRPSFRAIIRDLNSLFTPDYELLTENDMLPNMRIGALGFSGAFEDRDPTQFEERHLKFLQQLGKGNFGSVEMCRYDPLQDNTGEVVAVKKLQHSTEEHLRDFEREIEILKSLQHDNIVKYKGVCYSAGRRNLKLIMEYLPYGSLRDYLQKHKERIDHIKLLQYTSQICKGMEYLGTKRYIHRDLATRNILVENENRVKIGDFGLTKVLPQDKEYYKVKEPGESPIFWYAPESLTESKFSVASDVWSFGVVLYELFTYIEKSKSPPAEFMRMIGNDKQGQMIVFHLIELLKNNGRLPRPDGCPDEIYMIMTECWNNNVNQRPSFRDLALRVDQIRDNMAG
Another experiment concerns pStat3. The experiment in a line: In-Cell-Western blot assay for pStat3 (ICW) in A431 cells. It counts as cell-based. The note with it: Homo sapiens, A-431, 2 hrs, read-out: pSTAT3 inhibition. How it is done: A431 cells were seeded onto a 96-well micro plate. After overnight serum starvation cells were incubated with compounds for 2 hrs. Cells were fixed with 4% paraformaldehyde in PBS and then permeabilized with 0.1% Triton X-100 in PBS (PBST). Cells were blocked with 5% BSA in PBST for 2 hrs, followed by overnight incubation with phospho Stat3 antibody. Cells were washed and incubated with europium-labeled anti-rabbit secondary antibody for 2 hrs. After washing enhancement solution was added to the wells. The micro-plate was read on the Victor instrument at the Europium setting. The Hoechst readings were used to normalize for cell number. IC50 values were calculated with the normalized europium values using Graphpad Prism.

Chain of c-Src (P12931 whole entry, looked up): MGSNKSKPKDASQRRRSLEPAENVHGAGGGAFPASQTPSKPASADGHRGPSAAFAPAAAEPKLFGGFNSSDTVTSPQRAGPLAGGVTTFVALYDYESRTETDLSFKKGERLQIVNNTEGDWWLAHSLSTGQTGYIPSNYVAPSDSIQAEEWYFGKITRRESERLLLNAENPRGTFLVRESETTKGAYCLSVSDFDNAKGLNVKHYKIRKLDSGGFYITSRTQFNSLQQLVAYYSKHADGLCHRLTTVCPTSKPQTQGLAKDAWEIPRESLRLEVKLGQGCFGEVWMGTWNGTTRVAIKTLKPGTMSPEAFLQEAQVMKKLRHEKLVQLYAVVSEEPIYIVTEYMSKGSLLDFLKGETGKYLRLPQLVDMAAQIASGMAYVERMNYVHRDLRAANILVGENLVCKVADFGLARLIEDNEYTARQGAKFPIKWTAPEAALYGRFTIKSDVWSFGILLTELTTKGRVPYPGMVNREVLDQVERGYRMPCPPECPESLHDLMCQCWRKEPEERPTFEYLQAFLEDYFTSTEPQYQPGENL

Regarding `Cc1ccc(NC(=O)c2cccc(Br)c2)cc1N1CCc2nc(Nc3ccc(N4CCN(C)CC4)cc3)ncc2C1=O` [Compound 58, 3-Bromo-N-(4-methyl-3-{2-[4-(4-methyl-piperazin-1-yl)-phenylamino]-5-oxo-7,8-dihydro-5H-pyrido[4,3-d]pyrimidin-6-yl}-phenyl)-benzamide], the IC50 was determined as 0.019 µM against c-Src and 0.044 µM against JAK2. This compound displayed an EC50 in the experiment with Mda-Mb-231 cells of 3.82 µM.

`Cc1ccc(NC(=O)CC2CCCC2)cc1N1CCc2nc(Nc3ccc(OCCN4CCCC4)cc3)ncc2C1` [Compound 108, 2-Cyclopentyl-N-(4-methyl-3-{2-[4-(2-pyrrolidin-1-yl-ethoxy)-phenylamino]-7,8-dihydro-5H-pyrido[4,3-d]pyrimidin-6-yl}-phenyl)-acetamide]: at c-Src, the IC50 came out at 0.001 µM, the inhibition at 0.1 µM amounted to 98% and the inhibition at 1 µM stood at 100%. For the same compound, the EC50 in the experiment on Mda-Mb-231 cells was determined as 2.6 µM. Besides, on JAK2, the IC50 came to 0.012 µM and the inhibition at 0.1 µM was 89%. Further, the inhibition at 1 µM on JAK2 (1 μM) is 98%.

For `Cc1ccc(NC(=O)c2cccc(C(F)(F)F)c2)cc1N1CCc2nc(Nc3ccc(C(N)=O)nc3)ncc2C1` [Compound 119, 5-{6-[2-Methyl-5-(3-trifluoromethyl-benzoylamino)-phenyl]-5,6,7,8-tetrahydro-pyrido[4,3-d]pyrimidin-2-ylamino)-pyridine-2-carboxylic acid amide], at c-Src, the inhibition at 0.1 µM came to 95% and the inhibition at 1 µM worked out at 98%. Moreover, the IC50 with pStat3 amounted to 0.28 µM. The EC50 with Mda-Mb-231 cells was 0.38 µM. On JAK2, this compound registered an IC50 of 0.008 µM.

As to `Cc1ccc(NC(=O)c2cc(Cl)cc(C(F)(F)F)c2)cc1N1CCc2nc(Nc3ccc(N4CCN(C)CC4)cc3)ncc2C1=O` [Compound 120, 3-Chloro-N-(4-methyl-3-{2-[4-(4-methyl-piperazin-1-yl)-phenylamino]-5-oxo-7,8-dihydro-5H-pyrido[4,3-d]pyrimidin-6-yl}-phenyl)-5-trifluoromethyl-benzamide], on c-Src, the inhibition at 0.1 µM was determined as 94% and the inhibition at 1 µM is 95%. Besides, the 50% effective concentration (EC50) in the experiment with Mda-Mb-231 cells was 2.5 µM. For the same compound, the IC50 against JAK2 was 0.036 µM.

For the compound `Cc1ccc(NC(=O)c2cccc(C(F)(F)F)c2)cc1N1CCc2nc(Nc3ccc(C(=O)NC4CCN(C)CC4)nc3)ncc2C1` [Compound 148, 5-{6-[2-Methyl-5-(3-trifluoromethyl-benzoylamino)-phenyl]-5,6,7,8-tetrahydro-pyrido[4,3-d]pyrimidin-2-ylamino}-pyridine-2-carboxylic acid (1-methyl-piperidin-4-yl)-amide], at c-Src, the IC50 is 0.0024 µM, the inhibition at 0.1 µM is 99% and the inhibition at 1 µM was determined as 99%. In addition, in the experiment with pStat3, the IC50 came to 0.27 µM. In the experiment with Mda-Mb-231 cells, this compound returned an EC50 of 0.034 µM.

Take `Cc1ccc(NC(=O)NC2CCCC2)cc1N1CCc2nc(Nc3ccc(OCCN4CCCC4)cc3)ncc2C1` [Compound 153, 1-Cyclopentyl-3-(4-methyl-3-{2-[4-(2-pyrrolidin-1-yl-ethoxy)-phenylamino]-7,8-dihydro-5H-pyrido[4,3-d]pyrimidin-6-yl}-phenyl)-urea]: at c-Src, the inhibition at 0.1 µM amounted to 98% and the inhibition at 1 µM was found to be 99%. Moreover, the midpoint of the response in the experiment with Mda-Mb-231 cells, the EC50, lay at 0.61 µM. This compound also yielded an IC50 against JAK2 of 0.004 µM.

On to `Cc1ccc(NC(=O)CC(C)C(F)(F)F)cc1N1CCc2nc(Nc3ccc(OCCN4CCN(C)CC4)cc3)ncc2C1` (stereo not drawn) [Compound 160, 4,4,4-Trifluoro-3-methyl-N-[4-methyl-3-(2-{4-[2-(4-methyl-piperazin-1-yl)-ethoxy]-phenylamino}-7,8-dihydro-5H-pyrido[4,3-d]pyrimidin-6-yl)-phenyl]-butyramide], for which the IC50 amounted to 0.066 µM against c-Src and 0.015 µM against JAK2.

In the case of `Cc1ccc(NC(=O)CCC(F)(F)F)cc1N1CCc2nc(Nc3ccc(C(=O)N4CCN(C)CC4)cc3)ncc2C1` [Compound 164, 4,4,4-Trifluoro-N-(4-methyl-3-{2-[4-(4-methyl-piperazine-1-carbonyl)-phenylamino]-7,8-dihydro-5H-pyrido[4,3-d]pyrimidin-6-yl}-phenyl)-butyramide], the IC50 against c-Src is 0.026 µM; on JAK2, 0.046 µM. The inhibition at 0.1 µM on c-Src was determined as 70%; on JAK2, 68%. For the same compound, the inhibition at 1 µM is 79% on c-Src and 91% on JAK2 (1 μM).

For `Cc1ccc(NC(=O)c2cc(C(F)(F)F)ccn2)cc1N1CCc2nc(Nc3ccc(N4CCN(C)CC4)cc3)ncc2C1=O` [Compound 166, 4-Trifluoromethyl-pyridine-2-carboxylic acid (4-methyl-3-{2-[4-(4-methyl-piperazin-1-yl)-phenylamino]-5-oxo-7,8-dihydro-5H-pyrido[4,3-d]pyrimidin-6-yl}-phenyl)-amide], at c-Src, the IC50 amounted to 0.027 µM, the inhibition at 0.1 µM is 60% and the inhibition at 1 µM turned out to be 87%. For the same compound, on JAK2, the IC50 was found to be 0.048 µM and the inhibition at 0.1 µM was 74%. For the same compound, at JAK2 (1 μM), the inhibition at 1 µM was 93%.

As to `Cc1ccc(NC(=O)c2cc(C(F)(F)F)ccn2)cc1N1CCc2nc(Nc3ccc(C(=O)N4CCN(C)CC4)cc3)ncc2C1` [Compound 167, 4-Trifluoromethyl-pyridine-2-carboxylic acid (4-methyl-3-{2-[4-(4-methyl-piperazine-1-carbonyl)-phenylamino]-7,8-dihydro-5H-pyrido[4,3-d]pyrimidin-6-yl}-phenyl)-amide], the IC50 was 0.027 µM against c-Src, 0.283 µM with pStat3 and 0.0053 µM against JAK2. Further, the inhibition at 0.1 µM at c-Src amounted to 97%; on JAK2 it was 95%. The inhibition at 1 µM stood at 98% at c-Src and 97% on JAK2 (1 μM).

Consider `Cc1ccc(NC(=O)c2cc(C(F)(F)F)ccn2)cc1N1CCc2nc(Nc3ccc(C(=O)N4CCN(C)CC4)cc3)ncc2C1=O` [Compound 170, 4-Trifluoromethyl-pyridine-2-carboxylic acid (4-methyl-3-{2-[4-(4-methyl-piperazine-1-carbonyl)-phenylamino]-5-oxo-7,8-dihydro-5H-pyrido[4,3-d]pyrimidin-6-yl}-phenyl)-amide], for which, at c-Src, the inhibition at 0.1 µM is 26% and the inhibition at 1 µM amounted to 58%. Also, at JAK2, the IC50 was found to be 0.07 µM and the inhibition at 0.1 µM is 64%. Besides, the inhibition at 1 µM at JAK2 (1 μM) is 93%.

Regarding `CN1CCN(c2ccc(Nc3ncc4c(n3)CCN(c3cc(NC(=O)c5cc(F)cc(C(F)(F)F)c5)ccc3Cl)C4=O)cc2)CC1` [Compound 172, N-(4-Chloro-3-{2-[4-(4-methyl-piperazin-1-yl)-phenylamino]-5-oxo-7,8-dihydro-5H-pyrido[4,3-d]pyrimidin-6-yl]-phenyl)-3-fluoro-5-trifluoromethyl-benzamide], the inhibition at 0.1 µM at c-Src was determined as 66%; on JAK2, 94%. Further, the figures for the inhibition at 1 µM on c-Src and at JAK2 (1 μM) were 72% and 97%, respectively. A half-maximal response in the experiment with Mda-Mb-231 cells (EC50) required 1.84 µM.

For the compound `CN1CCN(c2ccc(Nc3ncc4c(n3)CCN(c3cc(NC(=O)c5cccc(C(F)(F)F)c5)ccc3Cl)C4)cc2)CC1` [Compound 174, N-(4-Chloro-3-{2-[4-(4-methyl-piperazin-1-yl)-phenylamino]-7,8-dihydro-5H-pyrido[4,3-d]pyrimidin-6-yl}-phenyl)-3-trifluoromethyl-benzamide], the inhibition at 0.1 µM was found to be 95% on c-Src and 94% on JAK2. The inhibition at 1 µM is 98% at c-Src and 97% at JAK2 (1 μM). Further, in the experiment on pStat3, the IC50 worked out at 0.161 µM.

Regarding `CNC(=O)c1ccc(Nc2ncc3c(n2)CCN(c2cc(NC(=O)c4cccc(C(F)(F)F)c4)ccc2Cl)C3)cc1` [Compound 176, N-{4-Chloro-3-[2-(4-methylcarbamoyl-phenylamino)-7,8-dihydro-5H-pyrido[4,3-d]pyrimidin-6-yl]-phenyl}- -5-trifluoromethyl-benzamide], at c-Src, the IC50 turned out to be 0.013 µM, the inhibition at 0.1 µM was determined as 87% and the inhibition at 1 µM came out at 96%. This compound came in with a concentration giving a half-maximal response (EC50) with Mda-Mb-231 cells of 0.33 µM. Moreover, at JAK2, the IC50 is 0.015 µM and the inhibition at 0.1 µM amounted to 89%. In addition, at JAK2 (1 μM), the inhibition at 1 µM came to 94%.

Take `CNC(=O)c1ccc(Nc2ncc3c(n2)CCN(c2cc(NC(=O)c4cc(F)cc(C(F)(F)F)c4)ccc2Cl)C3)cc1` [Compound 177, N-{4-Chloro-3-[2-(4-methylcarbamoyl-phenylamino)-7,8-dihydro-5H-pyrido[4,3-d]pyrimidin-6-yl]-phenyl}-3-fluoro-5-trifluoromethyl-benzamide]: on c-Src, the IC50 was found to be 0.02 µM, the inhibition at 0.1 µM worked out at 86% and the inhibition at 1 µM is 96%. Also, the IC50 in the experiment with pStat3 came to 0.29 µM. This compound also came in with an EC50 in the experiment on Mda-Mb-231 cells of 0.12 µM.

With `Cc1nc(Nc2ncc(C(=O)Nc3c(C)cccc3Cl)s2)cc(N2CCN(CCO)CC2)n1` [Dasatinib, reference compound], the midpoint of the response in the experiment with Mda-Mb-231 cells, the EC50, lay at 0.044 µM. Further, the “JAK2 % inhibition at 1 μM” value at JAK2 (1 μM) was found to be 55%.
